Test [1] addresses T1, BRD4 bromo domain 1 [BRD4(1)] (Homo sapiens, UniProt O60885).
T1 construct: N-terminally His6-tagged BRD4(1) (amino acids 67-152); made in house; host or cells: E. coli
Kind of test: BRD4(1)/acetylated peptide H4 TR-FRET binding assay. To be noted: His6-BRD4(1) (aa 67-152) vs acetylated histone H4 peptide. An excerpt:
To assess the BRD4(1) binding strength of the substances described in this application, the ability thereof to inhibit the interaction between BRD4(1) and acetylated histone H4 in a dose-dependent manner was quantified.
(§1) For this purpose, a time-resolved fluorescence resonance energy transfer (TR-FRET) assay was used, which measures the binding between N-terminally His6-tagged BRD4(1) (amino acids 67-152) and a synthetic acetylated histone H4 (Ac-H4) peptide with sequence GRGK(Ac)GGK(Ac)GLGK(Ac)GGAK(Ac)RHGSGSK-biotin. The recombinant BRD4(1) protein produced in-house according to Filippakopoulos et al., Cell, 2012, 149:214-231 was expressed in E. coli and purified by means of (Ni-NTA) affinity and (Sephadex G-75) size exclusion chromatography. The Ac-H4 peptide can be purchased, for example, from Biosyntan (Berlin, Germany).
(§2) In the assay, typically 11 different concentrations of each substance (0.1 nM, 0.33 nM, 1.1 nM, 3.8 nM, 13 nM, 44 nM, 0.15 μM, 0.51 μM, 1.7 μM, 5.9 μM and 20 μM) were analysed as duplicates on the same microtitre plate. For this purpose, 100-fold concentrated solutions in DMSO were prepared by serial dilutions (1:3.4) of a 2 mM stock solution into a clear, 384-well microtitre plate (Greiner Bio-One, Frickenhausen, Germany). From this, 50 nl were transferred into a black test plate (Greiner Bio-One, Frickenhausen, Germany). The test was started by the addition of 2 μl of a 2.5-fold concentrated BRD4(1) solution (final concentration typically 10 nM in the 5 μl of reaction volume) in aqueous assay buffer [50 mM HEPES pH 7.5, 50 mM sodium chloride (NaCl), 0.25 mM CHAPS and 0.05% serum albumin (BSA)] to the substances in the test plate. This was followed by a 10-minute incubation step at 22° C. for the pre-equilibration of putative complexes between BRD4(1) and the substances. Subsequently, 3 μl of a solution of 1.67 times the concentration (in assay buffer) consisting of Ac-H4 peptide (83.5 nM) and TR-FRET detection reagents [16.7 nM anti-6His-XL665 and 3.34 nM streptavidin cryptate (both from Cisbio Bioassays, Codolet, France), and 668 mM potassium fluoride (KF)] were added.
(§3) The mixture was then incubated in the dark at 22° C. for one hour and then at 4° C. for at least 3 hours and for no longer than overnight. The formation of BRD4(1)/Ac-H4 complexes was determined by the measurement of the resonance energy transfer from the streptavidin-Eu cryptate to the anti-6His-XL665 antibody present in the reaction. For this purpose, the fluorescence emission was measured at 620 nm and 665 nm after excitation at 330-350 nm in a TR-FRET measuring instrument, for example a Rubystar or Pherastar (both from BMG Lab Technologies, Offenburg, Germany) or a Viewlux (Perkin-Elmer). The ratio of the emissions at 665 nm and at 622 nm was taken as an indicator of the amount of BRD4(1)/Ac-H4 complexes formed.
The data (ratios) obtained were normalized, with 0% inhibition corresponding to the mean from the measurements for a set of controls (typically 32 data points) in which all the reagents were present. In these, in place of test substances, 50 nl of DMSO (100%) were used. Inhibition of 100% corresponded to the mean from the measurements for a set of controls (typically 32 data points) in which all the reagents except BRD4(1) were present. The IC50 was determined by regression analysis based on a 4-parameter equation (minimum, maximum, IC50, Hill; Y=Max+(Min−Max)/(1+(X/IC50)Hill).
In general terms: Time-resolved FRET reads energy transfer from a long-lived donor to a nearby acceptor.

For test [2], the target named is T2, BRD4 bromo domain 2 [BRD4(2)] (Homo sapiens, UniProt O60885).
T2 construct: N-terminally His6-tagged BRD4(2) (amino acids 357-445); made in house; host or cells: E. coli
Kind of test: BRD4(2)/acetylated peptide H4 TR-FRET binding assay. Conditions: His6-BRD4(2) (aa 357-445) vs acetylated histone H4 peptide.
From the text: To assess the BRD4(2) binding strength of the substances described in this application, the ability thereof to inhibit the interaction between BRD4(2) and acetylated histone H4 in a dose-dependent manner was quantified.
as §1, with “BRD4(2)” for “BRD4(1)”, “357-445)” for “67-152)”, “SGRGK(Ac)GGK(Ac)GLGK(Ac)GGAK(Ac)RHRKVLRDNGSGSK-biotin.” for “GRGK(Ac)GGK(Ac)GLGK(Ac)GGAK(Ac)RHGSGSK-biotin.”
as §2, with “concentrated BRD4(2)” for “concentrated BRD4(1)”, “typically 100” for “typically 10”, “chloride (NaCl); 50 mM potassium fluoride (KF);” for “chloride (NaCl),”, “between BRD4(2)” for “between BRD4(1)”, “substances.” for “substances. Subsequently, 3 μl of a solution of 1.67 times the concentration (in assay buffer) consisting of Ac-H4 peptide (83.5 nM) and TR-FRET detection reagents [16.7 nM anti-6His-XL665 and 3.34 nM streptavidin cryptate (both from Cisbio Bioassays, Codolet, France), and 668 mM potassium fluoride (KF)] were added.”
as §3, with “BRD4(2)/Ac-H4” for “BRD4(1)/Ac-H4”, “chelate” for “cryptate”
The data (ratios) obtained were normalized, with 0% inhibition corresponding to the mean from the measurements for a set of controls (typically 32 data points) in which all the reagents were present. In these, in place of test substances, 50 nl of DMSO (100%) were used. Inhibition of 100% corresponded to the mean from the measurements for a set of controls (typically 32 data points) in which all the reagents except BRD4(2) were present. The IC50 was determined by regression analysis based on a 4-parameter equation (minimum, maximum, IC50, Hill; Y=Max+(Min−Max)/(1+(X/IC50)Hill)).

A further test deals with MOLM-13 cells. Kind of test: Cell proliferation assay MOLM-13, method 2 (CellTiterGlo). In kind it is cell-based. To be noted: Homo sapiens, MOLM-13, 72 h; acute myeloid leukaemia cells, 500 cells/well, 1536-well, 3-day incubation, CellTiterGlo ATP readout. On the procedure:
Alternatively, the MOLM-13 cells (DSMZ, ACC 554) were seeded at a concentration of 500 cells/well in 5 μl of growth medium (RPMI1640, 10% FCS) on 1536-well microtitre plates (method 2).
In method 2, after 3-day incubation with the inhibitor, the ATP concentration was determined as readout for the cell number using the CellTiterGlo kit (Promega). The measurement was carried out using a luminometer.
The substances were tested in the cell lines in Table 2, which represent the indications specified by way of example: […]

Each structure is given as a SMILES string. pIC50: −log10 of the molar value.

This note sets out measurements from patent publication US20170121322A1, “BET-PROTEIN INHIBITING 3,4-DIHYDROPYRIDO[2,3-B]PYRAZINONES WITH META-SUBSTITUTED AROMATIC AMINO- OR ETHER GROUPS” (Bayer Pharma Aktiengesellschaft, priority 2014, published 2017).

As a reminder, the pIC50 is −log10 of the IC50, conventionally taken in molar units. Read a low pIC50 as a high IC50. As to `C[C@@H]1C(=O)N(C)c2ccc(Nc3cccc(-c4ccc(C#N)cc4)c3)nc2N1C1CCOCC1` [Example 18, 3′-{[(3R)-1,3-Dimethyl-2-oxo-4-(tetrahydro-2H-pyran-4-yl)-1,2,3,4-tetrahydropyrido[2,3-b]pyrazin-6-yl]amino}biphenyl-4-carbonitrile], the pIC50 in test [1] is 5.96; in test [2], 6.53; in the test with MOLM-13 cells it was 5.78.

For `C=CCS(=O)(=O)c1ccc(OC)c(Nc2ccc3c(n2)N(C2CCN(C)CC2)[C@H](C)C(=O)N3C)c1` [Example 23, (3R)-6-{[5-(Allylsulphonyl)-2-methoxyphenyl]amino}-1,3-dimethyl-4-(1-methylpiperidin-4-yl)-3,4-dihydropyrido[2,3-b]pyrazin-2(1H)-one], the negative-log IC50 (pIC50) in test [1] is 7.57; in test [2], 7.19; with MOLM-13 cells, 7.29.

On to `COc1ccc(S(=O)(=O)C(C)C)cc1Nc1ccc2c(n1)N(C1CCN(C(=O)OC(C)(C)C)CC1)[C@H](C)C(=O)N2C` [Example 24, tert-Butyl 4-[(3R)-6-{[5-(isopropylsulphonyl)-2-methoxyphenyl]amino}-1,3-dimethyl-2-oxo-2,3-dihydropyrido[2,3-b]pyrazin-4(1H)-yl]piperidine-1-carboxylate], for which the pIC50 is 7.07 in test [1], 7.11 in test [2] and 6.83 with MOLM-13 cells.

With `COc1ccc(S(C)(=O)=O)cc1Nc1ccc2c(n1)N(C1CCN(C(=O)OC(C)(C)C)CC1)[C@H](C)C(=O)N2C` [Example 25, tert-Butyl 4-[(3R)-6-{[2-methoxy-5-(methylsulphonyl)phenyl]amino}-1,3-dimethyl-2-oxo-2,3-dihydropyrido[2,3-b]pyrazin-4(1H)-yl]piperidine-1-carboxylate], the negative logarithm of the IC50 (pIC50) in test [1] is 6.81; in test [2], 6.87; in the test on MOLM-13 cells it was 6.24.

In the case of `CC(C)S(=O)(=O)c1cccc(Nc2ccc3c(n2)N(C2CCN(CCC(F)(F)F)CC2)[C@H](C)C(=O)N3C)c1` [Example 30, (3R)-6-{[3-(Isopropylsulphonyl)phenyl]amino}-1,3-dimethyl-4-[1-(3,3,3-trifluoropropyl)piperidin-4-yl]-3,4-dihydropyrido[2,3-b]pyrazin-2(1H)-one], the pIC50 in test [1] was 7.70; in test [2] it was 6.94; in the test on MOLM-13 cells, 7.14.

In the case of `CCS(=O)(=O)c1ccc(Oc2ccc(F)cc2)c(Nc2ccc3c(n2)N(C2CCN(C)CC2)[C@H](C)C(=O)N3C)c1` [Example 32, (3R)-6-{[5-(Ethylsulphonyl)-2-(4-fluorophenoxy)phenyl]amino}-1,3-dimethyl-4-(1-methylpiperidin-4-yl)-3,4-dihydropyrido[2,3-b]pyrazin-2(1H)-one], the pIC50 in test [1] is 6.02; in test [2], 7.54; in the test with MOLM-13 cells it was 7.40.

With `CCS(=O)(=O)c1ccc(Oc2ccccc2)c(Nc2ccc3c(n2)N(C2CCN(C)CC2)[C@H](C)C(=O)N3C)c1` [Example 33, (3R)-6-{[5-(Ethylsulphonyl)-2-phenoxyphenyl]amino}-1,3-dimethyl-4-(1-methylpiperidin-4-yl)-3,4-dihydropyrido[2,3-b]pyrazin-2(1H)-one], the results for the pIC50 (in test [1]; in test [2]; in the test on MOLM-13 cells) were 7.82, 7.29 and 7.59, respectively.

On to `CCS(=O)(=O)c1ccc(Oc2ccccc2)c(Nc2ccc3c(n2)N(C2CCOCC2)[C@H](C)C(=O)N3C)c1` [Example 36, (3R)-6-{[5-(Ethylsulphonyl)-2-phenoxyphenyl]amino}-1,3-dimethyl-4-(tetrahydro-2H-pyran-4-yl)-3,4-dihydropyrido[2,3-b]pyrazin-2(1H)-one], for which the pIC50 in test [1] is 7.47; in test [2], 7.31; in the test on MOLM-13 cells it was 6.80.

In the case of `CCS(=O)(=O)c1ccc(Oc2ccc(F)cc2)c(Nc2ccc3c(n2)N(C2CCOCC2)[C@H](C)C(=O)N3C)c1` [Example 37, (3R)-6-{[5-(Ethylsulphonyl)-2-(4-fluorophenoxy)phenyl]amino}-1,3-dimethyl-4-(tetrahydro-2H-pyran-4-yl)-3,4-dihydropyrido[2,3-b]pyrazin-2(1H)-one], the pIC50 is 7.46 in test [1], 7.41 in test [2] and 6.91 with MOLM-13 cells.
